Test results published in ChEMBL document CHEMBL5346971, “Discovery of the First Irreversible HDAC6 Isoform Selective Inhibitor with Potent Anti-Multiple Myeloma Activity” (J Med Chem, 2023).
The source made the active and inactive calls. No cut-off for these calls is given here.

How the values were obtained:
[1] = Metabolic stability of the compound in mouse liver microsomes assessed as parent compound remaining measured after 60 mins in presence of NADPH by LC-MS/MS analysis; format: ADME, Microsome; details: read-out: Stability
[2] = test system: RPMI-8226; assay: Induction of apoptosis in human RPMI-8226 cells assessed as proportion of necrotic cells at 0.5 uM incubated for 24 hrs by AnnexinV-FITC/PI staining based flow cytometry (reference value: 0.49%); format: functional, cell-based
[3] = biological target: T1, Class 1 histone deacetylase (Homo sapiens) (UniProt Q13547+O15379+Q92769+Q9BY41); assay: Irreversible inhibition of class 1 HDAC in human A549 cells assessed as acetyl histone H4 level at 0.4 uM incubated for 5 hrs followed by drug wash-out for 6 hrs by western blot analysis relative to control; format: cell-based
[4] = biological target: T2, Protein deacetylase HDAC6 (Homo sapiens, UniProt Q9UBN7); assay: Inhibition of N-terminal GST-tagged human full length recombinant HDAC6 (1 to 1215 residues) expressed in Sf9 cells using Boc-Lys(acetyI)-AMC as substrate preincubated with enzyme for 1 hr followed by substrate addition and measured after 30 mins by fluorescence based analysis
T2 sequence (Q9UBN7 whole entry): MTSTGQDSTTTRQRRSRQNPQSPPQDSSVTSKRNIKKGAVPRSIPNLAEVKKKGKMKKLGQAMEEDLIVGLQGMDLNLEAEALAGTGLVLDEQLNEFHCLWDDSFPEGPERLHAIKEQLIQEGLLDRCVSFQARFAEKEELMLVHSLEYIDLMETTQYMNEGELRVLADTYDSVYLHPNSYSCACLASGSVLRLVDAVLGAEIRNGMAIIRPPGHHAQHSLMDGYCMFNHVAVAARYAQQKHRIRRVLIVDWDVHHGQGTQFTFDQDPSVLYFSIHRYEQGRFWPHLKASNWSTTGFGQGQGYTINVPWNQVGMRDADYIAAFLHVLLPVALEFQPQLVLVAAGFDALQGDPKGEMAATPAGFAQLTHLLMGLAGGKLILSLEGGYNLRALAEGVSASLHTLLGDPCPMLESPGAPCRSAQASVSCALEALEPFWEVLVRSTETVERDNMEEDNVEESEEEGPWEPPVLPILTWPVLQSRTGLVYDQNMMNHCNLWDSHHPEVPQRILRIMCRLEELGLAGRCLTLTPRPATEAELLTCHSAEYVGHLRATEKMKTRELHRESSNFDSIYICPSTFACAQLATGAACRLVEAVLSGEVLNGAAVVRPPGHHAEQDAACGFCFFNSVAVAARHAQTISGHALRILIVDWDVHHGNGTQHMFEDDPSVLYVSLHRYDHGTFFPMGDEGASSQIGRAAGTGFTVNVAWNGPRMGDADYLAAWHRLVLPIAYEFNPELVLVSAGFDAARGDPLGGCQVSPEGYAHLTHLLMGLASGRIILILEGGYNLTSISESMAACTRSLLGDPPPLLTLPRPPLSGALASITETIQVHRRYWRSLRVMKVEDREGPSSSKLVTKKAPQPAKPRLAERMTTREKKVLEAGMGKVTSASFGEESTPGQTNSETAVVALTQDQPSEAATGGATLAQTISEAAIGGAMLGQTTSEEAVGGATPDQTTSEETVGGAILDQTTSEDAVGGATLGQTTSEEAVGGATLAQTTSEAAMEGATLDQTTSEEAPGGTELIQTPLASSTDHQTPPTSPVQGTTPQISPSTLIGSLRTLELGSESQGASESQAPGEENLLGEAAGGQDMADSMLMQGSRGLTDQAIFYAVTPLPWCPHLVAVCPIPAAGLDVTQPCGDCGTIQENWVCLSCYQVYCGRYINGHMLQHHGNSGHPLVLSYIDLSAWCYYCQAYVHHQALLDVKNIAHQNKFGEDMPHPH

[5] = biological target: T1, Class 1 histone deacetylase (Homo sapiens); assay: Irreversible inhibition of class 1 HDAC in human A549 cells assessed as acetyl histone H3 level at 0.4 uM incubated for 5 hrs followed by drug wash-out and measured immediately after drug wash-out by western blot analysis relative to control; format: cell-based
[6] = biological target: T1, Class 1 histone deacetylase (Homo sapiens); assay: Irreversible inhibition of class 1 HDAC in human A549 cells assessed as acetyl histone H4 level at 0.4 uM incubated for 5 hrs followed by drug wash-out for 24 hrs by western blot analysis relative to control; format: cell-based
[7] = Effect on HDAC6 protein expression in human A549 cells assessed as change in HDAC6 protein expression at 0.4 uM incubated for 5 hrs followed by drug wash-out and measured following drug wash-out by western blot analysis relative to control; format: functional
[8] = biological target: T3, Protein deacetylase HDAC6 (Homo sapiens) (UniProt Q9UBN7); assay: Irreversible inhibition of HDAC6 in human A549 cells assessed as acetyl alpha-tubulin level at 0.4 uM incubated for 5 hrs followed by drug wash-out for 24 hrs by western blot analysis relative to control; format: cell-based
T3 sequence (whole entry): T2 sequence (Q9UBN7 whole entry)

[9] = Metabolic stability of the compound in rat liver microsomes assessed as parent compound remaining measured after 60 mins in presence of NADPH by LC-MS/MS analysis; format: ADME, Microsome; details: read-out: Stability
[10] = Half-life in rat liver microsomes in presence of NADPH by LC-MS/MS analysis; format: ADME, Microsome
[11] = Half-life in mouse liver microsomes in presence of NADPH by LC-MS/MS analysis; format: ADME, Microsome
[12] = biological target: T3, Protein deacetylase HDAC6 (Homo sapiens); assay: Inhibition of HDAC6 in human A549 cells assessed as acetyl alpha-tubulin level at 2 uM incubated for 5 hrs by western blot analysis relative to control; format: cell-based
[13] = Metabolic stability of the compound in human liver microsomes assessed as parent compound remaining measured after 60 mins in presence of NADPH by LC-MS/MS analysis; format: ADME, Microsome; details: read-out: Stability
[14] = Half-life in human liver microsomes in presence of NADPH by LC-MS/MS analysis; format: ADME, Microsome
[15] = test system: RPMI-8226; assay: Antitumor activity against human RPMI-8226 cells xenografted in NCG mouse assessed as tumor growth inhibition at 10 ug administered intratumorally every 2 days by vernier caliper analysis; format: functional; details: dose 10 µg; route it(Intratumoral)
[16] = biological target: T1, Class 1 histone deacetylase (Homo sapiens); assay: Irreversible inhibition of class 1 HDAC in human A549 cells assessed as acetyl histone H4 level at 0.4 uM incubated for 5 hrs followed by drug wash-out and measured immediately after drug wash-out by western blot analysis relative to control; format: cell-based
[17] = test system: RPMI-8226; assay: Induction of apoptosis in human RPMI-8226 cells incubated for 24 hrs by AnnexinV-FITC/PI staining based flow cytometry; format: functional, cell-based; details: dose 0.1-0.5 µM
[18] = biological target: T3, Protein deacetylase HDAC6 (Homo sapiens); assay: Irreversible inhibition of HDAC6 in human A549 cells assessed as acetyl alpha-tubulin level at 0.4 uM incubated for 5 hrs followed by drug wash-out and measured immediately after drug wash-out by western blot analysis relative to control; format: cell-based
[19] = biological target: T1, Class 1 histone deacetylase (Homo sapiens); assay: Irreversible inhibition of class 1 HDAC in human A549 cells assessed as acetyl histone H4 level at 0.4 uM incubated for 5 hrs followed by drug wash-out for 1 hr by western blot analysis relative to control; format: cell-based
[20] = biological target: Histone deacetylase 2 (Homo sapiens, UniProt Q92769); assay: Inhibition of C-terminal FLAG-tagged human full length recombinant HDAC2 (1 to 488 residues) expressed in Sf9 cells using Boc-Lys(acetyI)-AMC as substrate preincubated with enzyme for 1 hr followed by substrate addition and measured after 30 mins by fluorescence based analysis
Chain of Histone deacetylase 2 (Q92769 whole entry, the tested form may be a part): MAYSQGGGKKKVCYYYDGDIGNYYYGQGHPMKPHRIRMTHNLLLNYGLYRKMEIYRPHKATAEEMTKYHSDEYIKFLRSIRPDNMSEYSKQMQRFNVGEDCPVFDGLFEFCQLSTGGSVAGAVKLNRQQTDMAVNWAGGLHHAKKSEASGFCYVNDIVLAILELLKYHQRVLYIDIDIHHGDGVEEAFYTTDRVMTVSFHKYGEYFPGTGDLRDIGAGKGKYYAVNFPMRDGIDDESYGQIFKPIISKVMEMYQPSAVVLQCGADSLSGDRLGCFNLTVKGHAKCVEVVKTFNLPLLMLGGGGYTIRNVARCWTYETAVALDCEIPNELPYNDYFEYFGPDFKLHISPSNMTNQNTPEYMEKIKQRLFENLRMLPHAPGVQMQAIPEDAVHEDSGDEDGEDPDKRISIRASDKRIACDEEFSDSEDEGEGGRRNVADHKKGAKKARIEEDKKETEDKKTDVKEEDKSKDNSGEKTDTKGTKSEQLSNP

T1 sequence (O15379 whole entry, looked up, the tested form may be a part): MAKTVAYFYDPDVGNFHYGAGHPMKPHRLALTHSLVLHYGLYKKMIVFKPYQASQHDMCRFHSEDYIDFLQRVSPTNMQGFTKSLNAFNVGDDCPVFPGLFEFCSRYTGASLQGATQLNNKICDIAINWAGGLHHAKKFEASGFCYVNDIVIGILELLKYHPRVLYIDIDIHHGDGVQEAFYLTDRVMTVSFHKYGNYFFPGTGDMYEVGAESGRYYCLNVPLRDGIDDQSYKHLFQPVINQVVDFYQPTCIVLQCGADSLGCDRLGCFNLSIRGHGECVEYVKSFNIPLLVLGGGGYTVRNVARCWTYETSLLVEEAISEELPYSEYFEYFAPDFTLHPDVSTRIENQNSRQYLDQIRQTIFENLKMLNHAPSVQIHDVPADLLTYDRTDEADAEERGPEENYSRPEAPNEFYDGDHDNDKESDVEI
T1 sequence (Q13547 whole entry, looked up, the tested form may be a part): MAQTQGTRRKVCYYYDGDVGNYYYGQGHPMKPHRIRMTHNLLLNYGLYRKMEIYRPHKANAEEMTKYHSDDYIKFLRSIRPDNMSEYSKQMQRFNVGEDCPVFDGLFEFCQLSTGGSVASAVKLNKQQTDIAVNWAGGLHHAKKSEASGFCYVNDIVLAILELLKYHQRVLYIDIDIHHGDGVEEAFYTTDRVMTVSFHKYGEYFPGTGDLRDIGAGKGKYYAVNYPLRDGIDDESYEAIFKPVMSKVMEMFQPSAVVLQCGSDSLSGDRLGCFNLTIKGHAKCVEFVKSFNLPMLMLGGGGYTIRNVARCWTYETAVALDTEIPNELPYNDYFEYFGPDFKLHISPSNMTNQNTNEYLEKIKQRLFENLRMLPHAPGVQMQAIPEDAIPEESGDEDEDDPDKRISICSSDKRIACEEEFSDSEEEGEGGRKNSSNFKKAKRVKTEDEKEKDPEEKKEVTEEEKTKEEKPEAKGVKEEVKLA
T1 sequence (Q92769 whole entry, looked up, the tested form may be a part): as the sequence (Q92769 whole entry, the tested form may be a part) above
T1 sequence (Q9BY41 whole entry, looked up, the tested form may be a part): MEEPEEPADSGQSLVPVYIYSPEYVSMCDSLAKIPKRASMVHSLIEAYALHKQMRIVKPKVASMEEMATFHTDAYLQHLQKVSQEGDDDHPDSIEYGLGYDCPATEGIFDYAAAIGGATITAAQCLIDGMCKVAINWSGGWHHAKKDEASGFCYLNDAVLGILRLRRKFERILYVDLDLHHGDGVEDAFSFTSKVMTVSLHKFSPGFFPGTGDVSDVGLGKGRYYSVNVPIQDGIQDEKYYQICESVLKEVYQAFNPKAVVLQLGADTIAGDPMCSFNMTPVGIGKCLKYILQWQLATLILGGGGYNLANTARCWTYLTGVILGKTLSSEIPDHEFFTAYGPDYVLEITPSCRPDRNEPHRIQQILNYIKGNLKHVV

remaining at 1 h [1]: < 0.35% | fold change (FC) [3]: 1 | IC50 [4]: 33 nM | fold change (FC) [5]: 1 | fold change (FC) [6]: 0.6 | fold change (FC) [8]: 4.3 | remaining at 1 h [9]: 0.6% | half-life [10]: 9.2 min | half-life [11]: 1.8 min | fold change (FC) [12]: 4.3 | remaining at 1 h [13]: < 0.33% | half-life [14]: 5.4 min | fold change (FC) [16]: 0.7 | fold change (FC) [18]: 5.2 | fold change (FC) [19]: 1.2 | IC50 [20]: 1500 nM
Structure (SMILES): O=C(NO)c1ccc(COc2no[n+]([O-])c2S(=O)(=O)c2ccccc2)cc1
Activity [2]: Active | fold change (FC) [7]: 1 | TGI [15]: 48% | Activity [17]: Dose-Dependent Effect
